Experimental data published in US9676728B2, “2-benzyl-benzimidazole complement factor B inhibitors and uses thereof” (Novartis AG, priority 2013, dated 2017).

These compounds were tested against human complement factor B (CVF-Bb complex) (Homo sapiens (Human), UniProt P00751) (assay: biochemical).
Protocol: CVF-Bb complex prepared from purified cobra venom factor (1 μM), recombinant human complement factor B (expressed in drosophila cells and purified using standard methods) and human complement factor D (expressed in E. Coli, refolded and purified using standard methods). CVF-Bb complex at 3 nM concentration was incubated with test compound at various concentrations for 1 hour at room temperature in PBS pH 7.4 containing 10 mM MgCl2 and 0.05% (w/v) CHAPS. Human complement C3 substrate purified from plasma was added to a final concentration of 1 μM. After 1 hour incubation at room temperature, the enzyme reaction was stopped by addition of a cocktail of concentrated pan-protease inhibitors. The product of the reaction, C3a, was quantified by means of an enzyme-linked-immunosorbent assay.
For `CNC(c1nc2cc(C#N)ccc2[nH]1)(c1c(OC)cc(C)c(Cl)c1C)C(F)(F)F` (racemic) [Example 6-B, (±)-2-(1-(3-Chloro-6-methoxy-2,4-dimethylphenyl)-2,2,2-trifluoro-1-(methylamino)ethyl)-1H-benzo[d]imidazole-5-carbonitrile], the IC50 was 1.98 µM.
For `CNC(c1nc2cc(C#N)ccc2[nH]1)c1c(OC)cc(C)cc1OC` (racemic) [Example 12-D (A), (±)-2-((2,6-Dimethoxy-4-methylphenyl)(methylamino)methyl)-1H-benzo[d]imidazole-5-carbonitrile], the IC50 was 13.9 µM.
With `CNC(c1nc2cc(C#N)ccc2[nH]1)(c1c(C)cccc1OC)C(F)(F)F` (racemic) [Example 6-C, (±)-2-(2,2,2-Trifluoro-1-(2-methoxy-6-methylphenyl)-1-(methylamino)ethyl)-1H-benzo[d]imidazole-5-carbonitrile] the IC50 was 3.13 µM.
Compound `COc1cc(C)cc(C)c1C(C)(N)c1nc2cc(C#N)ccc2[nH]1` (racemic) [Example 8-B, (±)-2-(1-Amino-1-(2-methoxy-4,6-dimethylphenyl)ethyl)-1H-benzo[d]imidazole-5-carbonitrile] has an IC50 of 6.9 µM.
With `COc1cc(C)cc(C)c1C(N)c1nc2cc(C#N)ccc2[nH]1` (racemic) [Example 7-D, (±)-2-(Amino(2-methoxy-4,6-dimethylphenyl)methyl)-1H-benzo[d]imidazole-5-carbonitrile] the IC50 was 8.7 µM.
For `COc1cc(C)cc(C)c1C(C)(O)c1nc2cc(C#N)ccc2[nH]1` (racemic) [Example 2-C, (±)-2-(1-Hydroxy-1-(2-methoxy-4,6-dimethylphenyl)ethyl)-1H-benzo[d]imidazole-5-carbonitrile], the IC50 was 1.45 µM.
Compound `COc1cc(C)cc(C)c1C(N)(c1nc2cc(C#N)ccc2[nH]1)C(F)(F)F` (racemic) [Example 6-D, (±)-2-(1-Amino-2,2,2-trifluoro-1-(2-methoxy-4,6-dimethylphenyl)ethyl)-1H-benzo[d]imidazole-5-carbonitrile] has an IC50 of 1.57 µM.
`CNC(c1nc2cc(C#N)ccc2[nH]1)(c1ccc(C)cc1OC)C(F)(F)F` (racemic) [Example 6-A, (±)-2-(2,2,2-Trifluoro-1-(2-methoxy-4-methylphenyl)-1-(methylamino)ethyl)-1H-benzo[d]imidazole-5-carbonitrile] gave an IC50 of 0.38 µM.
`COc1cc(C)cc(C)c1C(O)c1nc2cc(C#N)ccc2[nH]1` (racemic) [Example 1-C, (±)-2-(Hydroxy(2-methoxy-4,6-dimethylphenyl)methyl)-1H-benzo[d]imidazole-5-carbonitrile] was tested, and the IC50 was 5.75 µM.
For `COc1cc(C)cc(C)c1C(O)(c1nc2cc(C#N)ccc2[nH]1)C(F)(F)F` (racemic) [Example 3-B, (±)-2-(2,2,2-Trifluoro-1-hydroxy-1-(2-methoxy-4,6-dimethylphenyl)ethyl)-1H-benzo[d]imidazole-5-carbonitrile], the IC50 was 0.39 µM.
In the case of `CNC(c1nc2cc(C#N)ccc2[nH]1)(c1c(OC)cc(C)cc1OC)C(F)(F)F` (racemic) [Example 12-D (B), (±)-2-(1-(2,6-dimethoxy-4-methylphenyl)-2,2,2-trifluoro-1-(methylamino)ethyl)-1H-benzo[d]imidazole-5-carbonitrile], the IC50 is reported as 11.1 µM.
`COc1cc(C)cc(C)c1C(N)(c1nc2cc(C#N)ccc2[nH]1)C1CC1` (racemic) [Example 9-C, (±)-2-(Amino(cyclopropyl)(2-methoxy-4,6-dimethylphenyl)methyl)-1H-benzo[d]imidazole-5-carbonitrile] showed an IC50 of 1.5 µM.

What follows are compounds tested against Recombinant human factor B (Homo sapiens (Human), UniProt P00751) (assay: Human Complement Factor B TR-FRET Assay (displacement of Cy5-labeled ligand)).
Chain of Recombinant human factor B (P00751 26-764): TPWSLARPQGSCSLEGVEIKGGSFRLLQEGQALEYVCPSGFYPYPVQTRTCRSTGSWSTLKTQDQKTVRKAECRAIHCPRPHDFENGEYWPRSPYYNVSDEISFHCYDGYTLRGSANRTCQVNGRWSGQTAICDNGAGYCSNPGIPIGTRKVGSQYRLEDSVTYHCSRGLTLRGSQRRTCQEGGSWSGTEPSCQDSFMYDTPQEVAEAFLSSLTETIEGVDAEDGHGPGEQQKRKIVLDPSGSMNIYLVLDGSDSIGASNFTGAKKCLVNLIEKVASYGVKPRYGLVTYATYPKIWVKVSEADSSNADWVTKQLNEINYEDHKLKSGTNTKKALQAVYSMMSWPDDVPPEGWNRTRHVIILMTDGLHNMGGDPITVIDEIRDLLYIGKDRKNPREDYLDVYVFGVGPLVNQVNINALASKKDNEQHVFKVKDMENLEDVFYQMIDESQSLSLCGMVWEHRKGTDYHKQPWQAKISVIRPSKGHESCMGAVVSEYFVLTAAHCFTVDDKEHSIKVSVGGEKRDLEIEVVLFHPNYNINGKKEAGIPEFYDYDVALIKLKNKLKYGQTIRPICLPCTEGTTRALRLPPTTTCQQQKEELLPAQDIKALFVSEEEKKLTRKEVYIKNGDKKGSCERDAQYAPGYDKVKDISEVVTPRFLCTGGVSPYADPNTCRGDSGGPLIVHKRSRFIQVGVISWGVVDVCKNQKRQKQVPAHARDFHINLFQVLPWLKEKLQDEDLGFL
With `COc1cc(C)cc(C)c1C(OCC(N)=O)(c1nc2cc(C#N)ccc2[nH]1)C(F)(F)F` (racemic) [Example 10-C, (±)-2-(1-(5-Cyano-1H-benzo[d]imidazol-2-yl)-2,2,2-trifluoro-1-(2-methoxy-4,6-dimethylphenyl)ethoxy)acetamide] the IC50 was 0.47 µM.
`COc1cc(C)c(Br)c(C)c1C(O)(c1nc2cc(C#N)ccc2[nH]1)C(F)(F)F` (racemic) [Example 4, (±)-2-(1-(3-bromo-6-methoxy-2,4-dimethylphenyl)-2,2,2-trifluoro-1-hydroxyethyl)-1H-benzo[d]imidazole-5-carbonitrile] was tested, and the IC50 was 98.9 µM.
Compound `CNC(c1nc2cc(C#N)ccc2[nH]1)(c1c(OC)cc(C)c(Br)c1C)C(F)(F)F` (racemic) [Example 6-E, (±)-2-(1-(3-Bromo-6-methoxy-2,4-dimethylphenyl)-2,2,2-trifluoro-1-(methylamino)ethyl)-1H-benzo[d]imidazole-5-carbonitrile] has an IC50 of 7 µM.
